Results taken from patent US20050014806A1, “Substituted isoxazoles and their use as antibiotics” (priority 2001, published 2005).
Converted amounts (≈) assume the structure as drawn.

Legend:
Assay type in all cases: cell-based
[1] = test system: Streptococcus faecalis (BCM-010); assay: MIC by microdilution in microtiter plate, BCM-010; conditions: incubation 24 h at 35° C.; for MIC: Enterococcus faecalis
Method: (§1) In order to assess the antimicrobial activity of the compounds of the present invention a method of microdilution in microtiter plate was used. The compounds were diluted in a nutritious medium and, subsequently, distributed by two-fold serial dilutions in 96 well plates. Then, plates were inoculated with a bacterial suspension. After incubation for 24 h at 35° C. the minimum inhibitory concentration (MIC) of the drug in […] was determined as the lowest concentration of compound which inhibits the growth of the bacterium. Results included in Table 1 illustrate the antimicrobial activity of some of the compounds of the present invention in comparison with thus obtained with two compounds (linezolid and eperezolid) of a known antimicrobial activity. The antimicrobial activity of the compound versus Streptococcus faecalis (BCM-010, strain designation as for SALVAT collection) Staphylococcus aureus (BCM-012, strain designation as for SALVAT collection) and Moraxella catarrhalis (BCM-015, strain designation as for SALVAT collection), respectively, is shown in the different columns.

[2] = test system: Staphylococcus aureus (BCM-012); assay: MIC by microdilution in microtiter plate, BCM-012; conditions: incubation 24 h at 35° C.
Method: as §1

[3] = test system: Moraxella catarrhalis (BCM-015); assay: MIC by microdilution in microtiter plate, BCM-015; conditions: incubation 24 h at 35° C.
Method: as §1

Molecule	MIC [1] [µg/mL]	MIC [2] [µg/mL]	MIC [3] [µg/mL]	BCM-010 MIC [1] [µg/mL]	BCM-012 MIC [2] [µg/mL]	BCM-015 MIC [3] [µg/mL]
O=C(COCc1ccccn1)N1CCN(c2ccc(-c3cc(CNc4ccon4)on3)cc2F)CC1 [Example 16, 3-[3-fluoro-4-(2-pyridylmethoxyacetyl)piperazin-1-ylphenyl]-5-(isoxazol-3-ylaminomethyl)isoxazole]	4 (≈ 8.12 µM)	2 (≈ 4.06 µM)	–	–	–	–
O=Cc1cn(-c2ccc(-c3cc(CNc4ccon4)on3)cc2F)cn1 [Example 27, 1-{2-fluoro-4-[5-(isoxazol-3-ylaminomethyl)isoxazol-3-yl]phenyl}-1H-imidazol-4-carboxaldehyde]	2 (≈ 5.66 µM)	0.5 (≈ 1.42 µM)	4 (≈ 11.3 µM)	–	–	–
O=C(COc1ccc(/C=N\O)cc1)N1CCN(c2c(F)cc(-c3cc(CNc4ccon4)on3)cc2F)CC1 [Example 31, 4-[2-(4-{2,6-difluoro-4-[5-(isoxazol-3]aminomethyl)isoxazol-3-yl-penyl}-piperazin-1-yl)2-oxoethoxy]-benzaldoxime]	1 (≈ 1.86 µM)	0.5 (≈ 0.928 µM)	–	–	–	–
N#Cc1ccn(-c2ccc(-c3cc(CNc4ccon4)on3)cc2F)c1 [Example 25]	0.5 (≈ 1.43 µM)	0.5 (≈ 1.43 µM)	16 (≈ 45.8 µM)	–	–	–
OCc1ccn(-c2ccc(-c3cc(CNc4ccon4)on3)cc2F)c1 [Example 23, (1-{2-fluoro-4-[5-(isoxazol-3-ylaminomethyl)-isoxazol-3-yl]phenyl}-1H-pyrrol-3-yl)methanol]	1 (≈ 2.82 µM)	0.5 (≈ 1.41 µM)	4 (≈ 11.3 µM)	–	–	–
O=C(COc1ccccn1)N1CCN(c2ccc(-c3cc(CNc4ccon4)on3)cc2F)CC1 [Example 12, 3-[3-fluoro-4-(2-pyridyloxyacetyl)piperazin-1-ylphenyl]-5-(isoxazol-3-ylaminomethyl)isoxazole]	2 (≈ 4.18 µM)	2 (≈ 4.18 µM)	–	–	–	–
C#CCOCC(=O)N1CCN(c2ccc(-c3cc(CNc4ccon4)on3)cc2F)CC1 [Example 18, 3-[3-fluoro-4-(3-propyn-1-yloxyacetyl)piperazin-1-ylphenyl]-5-(isoxazol-3-ylaminomethyl)isoxazole]	4 (≈ 9.1 µM)	2 (≈ 4.55 µM)	–	–	–	–
O=C(CO)N1CCN(c2ccc(-c3cc(CNc4ccon4)on3)cc2F)CC1 [Example 1, 3-[3-fluoro-4-(hydroxyacetyl)piperazin-1-ylyhenyl]-5-(isoxazol-3-ylaminomethyl)isoxazole]	4 (≈ 9.97 µM)	2 (≈ 4.98 µM)	8 (≈ 19.9 µM)	–	–	–
Fc1cc(-c2cc(CNc3ccon3)on2)ccc1-n1ccnc1 [Example 2, 3-(3-fluoro-4-imidazol-1-ylphenyl)-5-(isoxazol-3-ylaminomethyl)isoxazole]	4 (≈ 12.3 µM)	2 (≈ 6.15 µM)	–	–	–	–
O=C(Cn1cncn1)N1CCN(c2ccc(-c3cc(CNc4ccon4)on3)cc2F)CC1 [Example 8, 3-[3-fluoro-4-(4-(1,2,4-triazol-1-yl)acetyl)piperazin-1-ylphenyl]-5-(isoxazol-3-ylaminomethyl)isoxazole]	4 (≈ 8.84 µM)	2 (≈ 4.42 µM)	–	–	–	–
O=C(Cn1cccc1)N1CCN(c2ccc(-c3cc(CNc4ccon4)on3)cc2F)CC1 [Example 10, 3-[3-fluoro-4-(4-(1-pyrrolyl)acetyl)piperazin-1-ylphenyl]-5-(isoxazol-3-ylaminomethyl)isoxazole]	4 (≈ 8.88 µM)	2 (≈ 4.44 µM)	> 16	–	–	–
O/N=C\c1ccn(-c2ccc(-c3cc(CNc4ccon4)on3)cc2F)c1 [Example 24]	0.5 (≈ 1.36 µM)	0.5 (≈ 1.36 µM)	16 (≈ 43.6 µM)	–	–	–
O=C(COc1ccccc1)N1CCN(c2ccc(-c3cc(CNc4ccon4)on3)cc2F)CC1 [Example 7, 1-(4-{2-fluoro-4-[5-(isoxazol-3-ylaminomethyl)-isoxazol-3-yl]-phenyl}piperazin-1-yl)-2-phenoxyethanone]	4 (≈ 8.38 µM)	2 (≈ 4.19 µM)	–	–	–	–
O=C(c1cccnc1)N1CCN(c2ccc(-c3cc(CNc4ccon4)on3)cc2F)CC1 [Example 9, 3-[3-fluoro-4-(3-pyridylcarbonyl)piperazin-1-ylphenyl]-5-(isoxazol-3-ylaminomethyl)isoxazole]	4 (≈ 8.92 µM)	2 (≈ 4.46 µM)	> 16	–	–	–
O=C(COc1ccc([N+](=O)[O-])cc1)N1CCN(c2ccc(-c3cc(CNc4ccon4)on3)cc2F)CC1 [Example 14, 3-[3-fluoro-4-(4-nitrophenyloxyaetyl)piperazin-1-ylphenyl]-5-(isoxazol-3-ylaminomethyl)isoxazole]	2 (≈ 3.83 µM)	1 (≈ 1.91 µM)	–	–	–	–
1-(2-fluoro-4-{5-[(3-methylisotiazol-5-ylamino)-methyl]isoxazol-3-yl}phenyl)-1H-imidazol-4-carboxaldehyde [Example 33]	–	–	–	2	0.5	4

Molecule	MIC [1] [µg/mL]	MIC [2] [µg/mL]	MIC [3] [µg/mL]	BCM-010 MIC [1] [µg/mL]	BCM-012 MIC [2] [µg/mL]	BCM-015 MIC [3] [µg/mL]
O=C(COc1cccnc1)N1CCN(c2ccc(-c3cc(CNc4ccon4)on3)cc2F)CC1 [Example 11, 3-[3-fluoro-4-(3-pyridyloxyacetyl)piperazin-1-ylphenyl]-5-(isoxazol-3-ylaminomethyl)isoxazole]	4 (≈ 8.36 µM)	2 (≈ 4.18 µM)	–	–	–	–
COc1ccccc1NCc1cn(-c2ccc(-c3cc(CNc4ccon4)on3)cc2F)cn1 [Example 29, [3-(3-fluoro-4-{4-[(2-methoxiphenylamino)-methyl]imidazol-1-yl}phenyl)isoxazol-5-ylmethyl]isoxazol-3-ylamine]	1 (≈ 2.17 µM)	0.5 (≈ 1.09 µM)	4 (≈ 8.69 µM)	–	–	–
O=C(Cn1cccn1)N1CCN(c2ccc(-c3cc(CNc4ccon4)on3)cc2F)CC1 [Example 6]	4 (≈ 8.86 µM)	2 (≈ 4.43 µM)	> 16	–	–	–
Cc1cn(-c2ccc(-c3cc(CNc4cc(C)ns4)on3)cc2F)cn1 [Example 34, {3-[3-fluoro-4-(4-methylimidazolyl)phenyl]isoxazol-5-ylmethyl}-(3-methyl-isothiazol-5-yl)amine]	1 (≈ 2.71 µM)	1 (≈ 2.71 µM)	4 (≈ 10.8 µM)	–	–	–
O=C(COCc1ccco1)N1CCN(c2ccc(-c3cc(CNc4ccon4)on3)cc2F)CC1 [Example 15, 3-[3-fluoro-4-(2-furylmethoxyacetyl)piperazin-1-ylphenyl]-5-(isoxazol-3-ylaminomethyl)isoxazole]	4 (≈ 8.31 µM)	2 (≈ 4.15 µM)	–	–	–	–
O=C(c1ccno1)N1CCN(c2ccc(-c3cc(CNc4ccon4)on3)cc2F)CC1 [Example 3]	4 (≈ 9.12 µM)	2 (≈ 4.56 µM)	–	–	–	–
N#Cc1ccc(OCC(=O)N2CCN(c3ccc(-c4cc(CNc5ccon5)on4)cc3F)CC2)cc1 [Example 17, 3-[3-fluoro-4-(4-cyanophenoxyacetyl)piperazin-1-ylphenyl]-5-(isoxazol-3-ylaminomethyl)isoxazole]	2 (≈ 3.98 µM)	2 (≈ 3.98 µM)	–	–	–	–
O=Cc1ccc(OCC(=O)N2CCN(c3c(F)cc(-c4cc(CNc5ccon5)on4)cc3F)CC2)cc1 [Example 26, 4-[2-(4-{2,6-difluoro-4-[5-(isoxazol-3-ylaminomethyl)isoxazol-3-yl]phenyl}piperazin-1-yl)-2-oxoethoxy]benzaldehyde]	1 (≈ 1.91 µM)	0.5 (≈ 0.955 µM)	4 (≈ 7.64 µM)	–	–	–
O=C(COc1ccc2ncccc2c1)N1CCN(c2ccc(-c3cc(CNc4ccon4)on3)cc2F)CC1 [Example 22, 1-(4-{2-fluoro-4-[5-(isoxazol-3-ylaminomethyl)-isoxazol-3-yl]-phenyl}piperazin-1-yl)-2(quinolin-6-yloxy)ethanone]	1 (≈ 1.89 µM)	0.5 (≈ 0.946 µM)	4 (≈ 7.57 µM)	–	–	–
CC(=O)NC[C@H]1CN(c2ccc(N3CCN(C(=O)CO)CC3)c(F)c2)C(=O)O1 [Eperezolid, eperezolid, reference compound]	4 (≈ 10.1 µM)	2 (≈ 5.07 µM)	8 (≈ 20.3 µM)	–	–	–
Cc1cc(NCc2cc(-c3ccc(-n4ccnc4)c(F)c3)no2)sn1 [Example 32, [3-(3-fluoro-4-imidazol-1-ylphenyl)isoxazol-5-ylmethyl]-(3-methylisotiazol-5-yl)amine]	1 (≈ 2.81 µM)	1 (≈ 2.81 µM)	–	–	–	–
CC(=O)NC[C@H]1CN(c2ccc(N3CCOCC3)c(F)c2)C(=O)O1 [Linezolid, linezolid, reference compound]	4 (≈ 11.9 µM)	2 (≈ 5.93 µM)	4 (≈ 11.9 µM)	–	–	–
Cc1ccccc1NCc1ccn(-c2ccc(-c3cc(CNc4ccon4)on3)cc2F)c1 [Example 30, (3-{3-fluoro-4-[3-(o-tolylaminomethyl)pyrrol-1-yl]phenyl}isoxazol-5-ylmethyl)isoxazol-3-ylamine]	1 (≈ 2.25 µM)	0.5 (≈ 1.13 µM)	16 (≈ 36.1 µM)	–	–	–
O=Cc1ccc(OCC(=O)N2CCN(c3ccc(-c4cc(CNc5ccon5)on4)cc3F)CC2)cc1 [Example 19, 3-[3-fluoro-4-(4-formylphenyloxyacetyl)piperazin-1-ylphenyl]-5-(isoxazol-3-ylaminomethyl)isoxazole]	0.5 (≈ 0.989 µM)	1 (≈ 1.98 µM)	–	–	–	–
O=C(COc1cccc([N+](=O)[O-])c1)N1CCN(c2ccc(-c3cc(CNc4ccon4)on3)cc2F)CC1 [Example 13, 3-[3-fluoro-4-(3-nitrophenyloxyacetyl)piperazin-1-ylphenyl]-5-(isoxazol-3-ylaminomethyl)isoxazole]	2 (≈ 3.83 µM)	1 (≈ 1.91 µM)	–	–	–	–
O=Cc1ccn(-c2ccc(-c3cc(CNc4ccon4)on3)cc2F)c1 [Example 5]	1 (≈ 2.84 µM)	1 (≈ 2.84 µM)	8 (≈ 22.7 µM)	–	–	–
